These results are taken from patent US6057317A, “Heterocyclic compounds” (Adir et Compagnie, priority 1997, dated 2000).

Assay [1] deals with imidazoline I1 receptor. Kind of assay: Measurement of in vitro affinity for the I1 receptor (radioligand displacement). The settings on record: [3H] clonidine + 10 μM noradrenaline; bovine lateral reticulated nucleus. In kind it is binding. The method, then: (§1) The profile of binding to the imidazoline I1 and I2 receptors was determined for the compounds of the invention by evaluating the ability of those compounds to displace specific radioligands of the receptors in question.
(§2) The following Table indicates the radioligand used to label each receptor, the compound and the concentration selected to determine the non-specific fraction, and the tissue selected. […]
10 μM reticulated nucleus
Background: Displacement assays read how much labelled ligand stays bound in the presence of the test substance.

The target in assay [2] is imidazoline I2 receptor. The assay can be described thus: Measurement of in vitro affinity for the I2 receptor (radioligand displacement). In kind it is binding. The note with it: [3H] idazoxan + 10 μM noradrenaline; renal cortex of rabbit. The method, then:
as §1, §2

Assay [3] has as its system SHR rats. Kind of assay: Antihypertensive activity in conscious rats. In kind it is in vivo, rat. The note with it: oral, dose of 15 mg/kg. The method, then:
The tests were carried out in SHR rats. The animals are anaesthetised. A heparinised catheter is introduced into the left carotid artery and connected to a recording apparatus so as to measure the systolic and diastolic arterial pressure and the heart rate. The animals are returned to their cage and the tests are carried out after 24 hours.
The parameters to be measured stabilise during a period of at least 30 minutes, during which a maximum of 1.5 ml of saline solution is injected in such a manner as to optimise the measurements. Only animals whose arterial pressure is higher than or equal to 170 mmHg are included in the study.
The test compounds of the carrier are administered orally and the measurements are carried out before the treatment and every ten minutes after treatment, for 4 hours, and then 8 and 24 hours after treatment.

By Ki is commonly meant a measure of affinity in units of concentration, obtained from inhibition or displacement.

On to `Cc1ccc2c(c1)N(C)CC(C1=NCCN1)O2` (stereo not drawn) [Example 2, 2-(4,5-Dihydro-1H-2-imidazolyl)-4,6-dimethyl-3,4-dihydro-2H-1,4-benzoxazineoxalate], for which the Ki worked out at 22 nM in assay [1] and 2 nM in assay [2]. In addition, in assay [3], the “effect on arterial pressure” value is on record as “allowed the arterial pressure to be normalized”.
